The source of these data is patent publication US20120004244A1, “Bis Aromatic Compounds for Use as LTC4 Synthase Inhibitors” (BIOLIPOX AB, priority 2009, published 2012).

Structures are written as SMILES.

The target in the first experiment is T1, Recombinant human LTC4 synthase (Homo sapiens, UniProt Q16873).
T1 construct: made in house; host or cells: Pichia pastoris ('Piccia pastoralis' [sic])
T1 sequence (Q16873 1-150): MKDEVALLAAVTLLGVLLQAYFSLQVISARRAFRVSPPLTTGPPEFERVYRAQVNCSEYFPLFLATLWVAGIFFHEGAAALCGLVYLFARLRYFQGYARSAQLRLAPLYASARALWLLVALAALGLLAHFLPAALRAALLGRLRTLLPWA
The experiment can be described thus: LTC4 synthase in vitro assay (LTA4 to LTC4, HTRF detection).
Details: not given
It counts as biochemical. How it is done: In the assay, LTC4 synthase catalyses the reaction where the substrate LTA4 is converted to LTC4. Recombinant human LTC4 synthase is expressed in Piccia pastoralis and the purified enzyme is dissolved in 25 mM tris-buffer pH 7.8 supplemented with 0.1 mM glutathione (GSH) and stored at −80° C. The assay is performed in phosphate buffered saline (PBS) pH 7.4 and 5 mM GSH in 384-well plates.
The following is added chronologically to each well:
1.48 μL LTC4 synthase in PBS with 5 mM GSH. The total protein concentration in this solution is 0.5 μg/mL. 2. 1 μL inhibitor in DMSO (final concentration 10 μM). 3. Incubation of the plate at room temperature for 10 min. 4. 1 μL LTA4 (final concentration 2.5 μM). 5. Incubation of the plate at room temperature for 5 min. 6. 10 μL of the incubation mixture is analysed using homogenous time resolved fluorescent (HTRF) detection.
(Time-resolved FRET reads energy transfer from a long-lived donor to a nearby acceptor.)
What is called IC50 is the point on the concentration scale where inhibition reaches its midpoint. For `COc1ccc(C(=O)c2ccc(C(=O)c3ccc(N(CC4CC4)c4ccc(Cl)cc4)cn3)cc2C(=O)O)cc1` [5:4], the IC50 is 29 nM.
Still for that read-out and setting: then `CCc1ccc(N(C)c2ccc(C(=O)c3ccc(C(=O)c4ccccc4)c(C(=O)O)c3)nc2)cc1` [5:23], with 184 nM.
Take `COc1ccccc1C(=O)c1ccc(C(=O)c2ccc(N(C)c3ccc(Cl)cc3)cn2)cc1C(=O)O` [5:8, 5-{5-[(4-Chlorophenyl)(methyl)amino]picolinoyl}-2-(2-methoxybenzoyl)benzoic acid]: the IC50 stood at 154 nM.
On the same count and under the same terms, then `CN(c1ccc(Cl)cc1)c1ccc(C(=O)c2ccc(-n3cccc3-c3ccccc3)c(C(=O)O)c2)nc1` [20:2, 5-{5-[(4-Chlorophenyl)(methyl)amino]picolinoyl}-2-(2-phenylpyrrol-1-yl)benzoic acid], with 64 nM; and `CN(c1ccc(Cl)cc1)c1ccc(C(=O)c2ccc(NC3CCC(F)(F)CC3)c(C(=O)O)c2)nc1` [2:15, 5-{5-[(4-Chlorophenyl)(methyl)amino]picolinoyl}-2-(4,4-difluorocyclohexylamino)benzoic acid], with 184 nM.
Regarding `CN(c1ccc(Cl)cc1)c1ccc(C(=O)c2ccc(NS(=O)(=O)c3ccc(Cl)cc3)c(C(=O)O)c2)nc1` [4:5, 5-{5-[(4-Chlorophenyl)(methyl)amino]picolinoyl}-2-(4-chlorophenylsulfonamido)-benzoic acid], the IC50 was 33 nM.
The same measure, in the same setting: then `O=C(c1ccc(Oc2ccccc2Oc2ccccc2)c(C(=O)O)c1)c1ccc(N(CC2CC2)c2ccc(Cl)cc2)cn1` [1:40, 5-{5-[(4-Chlorophenyl)(cyclopropylmethyl)amino]picolinoyl}-2-(2-phenoxyphenoxy)benzoic acid], with 66 nM; and `C#CCN(c1ccc(Cl)cc1)c1ccc(C(=O)c2ccc(Oc3ccccc3)c(C(=O)O)c2)nc1` [1:9, 5-{5-[(4-Chlorophenyl)(2-propynyl)amino]picolinoyl}-2-phenoxybenzoic acid], with 48 nM; and `O=C(c1ccc(Oc2ccccc2)c(C(=O)O)c1)c1ccc(N(CC2CC2)c2ccc(C(F)(F)F)cc2)cn1` [1:18, 5-{5-[(Cycloropylmethyl)(4-trifluoromethylphenyl)amino]picolinoyl}-2-phenoxybenzoic acid], with 141 nM.
`CN(c1ccc(Cl)cc1)c1ccc(C(=O)c2ccc(NC(=O)c3ccc(OC(F)(F)F)cc3)c(C(=O)O)c2)nc1` [3:11, 5-{5-[(4-Chlorophenyl)(methyl)amino]picolinoyl}-2-(4-trifluoromethoxy-benzamido)benzoic acid]: the IC50 is 44 nM.
Still for that read-out and setting: then `COc1cccc(C(=O)Nc2ccc(C(=O)c3ccc(N(C)c4ccc(Cl)cc4)cn3)cc2C(=O)O)c1OC` [3:27, 5-{5-[(4-Chlorophenyl)(methyl)amino]picolinoyl}-2-(2,3-dimethoxybenzamido)-benzoic acid], with 40 nM; and `COc1ccccc1C(=O)Nc1ccc(C(=O)c2ccc(N(CC3CC3)c3ccc(Cl)cc3)cn2)cc1C(=O)O` [3:8, 5-{5-[(4-Chlorophenyl)(cyclopropylmethyl)amino]picolinoyl}-2-(2-methoxy-benzamido)benzoic acid], with 40 nM; and `O=C(c1ccc(Oc2ccccc2)c(C(=O)O)c1)c1ccc(OCc2ccccc2C(F)(F)F)cn1` [11:7, 2-Phenoxy-5-[5-(2-trifluoromethylbenzyloxy)picolinoyl]benzoic acid], with 931 nM.
Same read-out and setting: then `CN(c1ccc(Cl)cc1)c1cnc(C(=O)c2ccc(Oc3ccc(F)cc3)c(C(=O)O)c2)nc1` [10:1, 5-{5-[(4-Chlorophenyl)(methyl)amino]pyrimidine-2-carbonyl}-2-(4-fluorophenoxy)-benzoic acid], with 154 nM; and `CN(c1ccc(Cl)cc1)c1ccc(C(=O)c2ccc(-c3ccccc3OCC3CC3)c(C(=O)O)c2)nc1` [21:5, 4-{5-[(4-Chlorophenyl)(methyl)amino]picolinoyl}-2′-(cyclopropylmethoxy)-biphenyl-2-carboxylic acid], with 384 nM.
The same measure, in the same setting: for `O=C(c1ccc(Oc2ccccc2Oc2cccnc2)c(C(=O)O)c1)c1ccc(N(CC2CC2)c2ccc(Cl)cc2)cn1` [1:43, 5-{5-[(4-Chlorophenyl)(cyclopropylmethyl)amino]picolinoyl}-2-[2-(3-pyridyloxy)phenoxy]benzoic acid] the value was 61 nM; for `COc1cccc(Oc2ccc(C(=O)c3ccc(N(CC4CC4)c4ccc(Cl)cc4)cn3)cc2C(=O)O)c1` [1:30, 5-{5-[(4-Chlorophenyl)(cyclopropylmethyl)amino]picolinoyl}-2-(3-methoxyphenoxy)benzoic acid], 158 nM.
As for `COc1ccc(C(=O)Nc2ccc(C(=O)c3ccc(N(C)c4ccc(Cl)cc4)cn3)cc2C(=O)O)cc1OC` [3:26, 5-{5-[(4-Chlorophenyl)(methyl)amino]picolinoyl}-2-(3,4-dimethoxybenzamido)-benzoic acid], the IC50 stood at 37 nM.
Same read-out and setting: for `O=C(c1ccc(Oc2ccccc2)c(C(=O)O)c1)c1ncc(N(CC2CC2)c2ccc(Cl)cc2)cn1` [10:4, 5-{5-[(4-Chlorophenyl)(cyclopropylmethyl)amino]pyrimidine-2-carbonyl}-2-phenoxybenzoic acid] the value was 132 nM; for `O=C(c1ccc(Oc2ccccc2)c(C(=O)O)c1)c1ncc(N(Cc2ccccc2)c2ccc(Cl)cc2)cn1` [10:5, 5-{5-[(Benzyl)(4-chlorophenyl)amino]pyrimidine-2-carbonyl}-2-phenoxybenzoic acid], 119 nM; for `CN(c1ccc(Cl)cc1)c1ccc(C(=O)c2ccc(N3CCC(C(C)(C)C)CC3)c(C(=O)O)c2)nc1` [2:5, 2-(4-tert-Butylpiperidin-1-yl)-5-{5-[(4-chlorophenyl)(methyl)amino]picolinoyl}benzoic acid], 3000 nM.
On the same count and under the same terms, then `CN(c1ccc(Cl)cc1)c1ccc(C(=O)c2ccc(NC(=O)c3cccc(C(F)(F)F)c3)c(C(=O)O)c2)nc1` [3:39, 5-{5-[(4-chlorophenyl)(methyl)amino]picolinoyl}-2-(3-trifluoromethylbenzamido)-benzoic acid], with 91 nM.
Same read-out and setting: for `CN(c1ccc(Cl)cc1)c1ccc(C(=O)c2ccc(-c3ccccc3C(F)(F)F)c(C(=O)O)c2)nc1` [21:1, 4-{5-[(4-Chlorophenyl)methylamino]pyridine-2-carbonyl}-2′-trifluoromethyl-biphenyl-2-carboxylic acid] the value was 138 nM; for `CN(c1ccc(Cl)cc1)c1ccc(C(=O)c2ccc(NCc3ccc(F)cc3)c(C(=O)O)c2)nc1` [2:10, 5-{5-[(4-Chlorophenyl)(methyl)amino]picolinoyl}-2-(4-fluorobenzylamino)benzoic acid], 157 nM; for `COc1ccc(Oc2ccc(C(=O)c3ccc(OCc4cccc(Cl)c4)cn3)cc2C(=O)O)cc1` [11:2, 5-[5-(3-Chlorobenzyloxy)picolinoyl]-2-(4-methoxyphenoxy)benzoic acid], 345 nM.
For the compound `CN(c1ccc(Cl)cc1)c1ccc(C(=O)c2ccc(-c3ccccc3Cl)c(C(=O)O)c2)nc1` [21:3, 2′-Chloro-4-{5-[(4-chlorophenyl)(methyl)amino]picolinoyl}biphenyl-2-carboxylic acid], the IC50 worked out at 349 nM.

The same experiment, now with this note: 5 min; total concentration of title compound in the assay 10 μM.
One may read the inhibition as the share of the control response that was lost under treatment. With `CN(c1ccc(Cl)cc1)c1ccc(C(=O)c2ccc(NS(=O)(=O)c3ccc(Cl)cc3)c(C(=O)O)c2)nc1` [4:5, 5-{5-[(4-Chlorophenyl)(methyl)amino]picolinoyl}-2-(4-chlorophenylsulfonamido)-benzoic acid], the inhibition at 10 µM amounted to 100%.
In the case of `C#CCN(c1ccc(Cl)cc1)c1ccc(C(=O)c2ccc(Oc3ccccc3)c(C(=O)O)c2)nc1` [1:9, 5-{5-[(4-Chlorophenyl)(2-propynyl)amino]picolinoyl}-2-phenoxybenzoic acid], the inhibition at 10 µM was 99%.
Same read-out and setting: for `O=C(c1ccc(Oc2ccccc2)c(C(=O)O)c1)c1ccc(N(CC2CC2)c2ccc(C(F)(F)F)cc2)cn1` [1:18, 5-{5-[(Cycloropylmethyl)(4-trifluoromethylphenyl)amino]picolinoyl}-2-phenoxybenzoic acid] the value was 100%.
Same read-out and setting: for `CN(c1ccc(Cl)cc1)c1cnc(C(=O)c2ccc(Oc3ccc(F)cc3)c(C(=O)O)c2)nc1` [10:1, 5-{5-[(4-Chlorophenyl)(methyl)amino]pyrimidine-2-carbonyl}-2-(4-fluorophenoxy)-benzoic acid] the value was 97%.
